Converted amounts (≈) assume the structure as drawn.
Columns and labels:
[1] = test system: Aspergillus niger; assay: Antifungal activity against Aspergillus niger MTCC 282 at 100 ug/disc by paper disc diffusion technique; format: functional; details: read-out: IZ
[2] = test system: Escherichia coli; assay: Antibacterial activity against Escherichia coli MTCC 739 by agar streak dilution method; format: functional
[3] = test system: Pseudomonas aeruginosa; assay: Antibacterial activity against Pseudomonas aeruginosa MTCC 741 by agar streak dilution method; format: functional
[4] = test system: Aspergillus niger; assay: Antifungal activity against Aspergillus niger MTCC 282 by agar streak dilution method; format: functional
[5] = Lipophilicity, log P of the compound; format: physicochemical; details: octanol/water
[6] = test system: Candida albicans; assay: Antifungal activity against Candida albicans MTCC 183 at 100 ug/disc by paper disc diffusion technique; format: functional; details: read-out: IZ
[7] = test system: Salmonella typhi; assay: Antibacterial activity against Salmonella typhi MTCC 733 at 100 ug/disc by paper disc diffusion technique; format: functional, Salmonella enterica subsp. enterica serovar Typhi; details: Salmonella enterica, read-out: IZ
[8] = test system: Aspergillus fumigatus; assay: Antifungal activity against Aspergillus fumigatus MTCC 343 at 100 ug/disc by paper disc diffusion technique; format: functional; details: read-out: IZ
[9] = test system: Klebsiella pneumoniae; assay: Antibacterial activity against Klebsiella pneumoniae MTCC 109 by agar streak dilution method; format: functional
[10] = test system: Proteus vulgaris; assay: Antibacterial activity against Proteus vulgaris MTCC 1771 by agar streak dilution method; format: functional
[11] = test system: Escherichia coli; assay: Antibacterial activity against Escherichia coli MTCC 739 at 100 ug/disc by paper disc diffusion technique; format: functional; details: read-out: IZ
[12] = test system: Klebsiella pneumoniae; assay: Antibacterial activity against Klebsiella pneumoniae MTCC 109 at 100 ug/disc by paper disc diffusion technique; format: functional; details: read-out: IZ
[13] = test system: Salmonella typhi; assay: Antibacterial activity against Salmonella typhi MTCC 733 by agar streak dilution method; format: functional, Salmonella enterica subsp. enterica serovar Typhi; details: Salmonella enterica
[14] = test system: Bacillus cereus; assay: Antibacterial activity against Bacillus cereus MTCC 430 at 100 ug/disc by paper disc diffusion technique; format: functional; details: read-out: IZ
[15] = test system: Bacillus cereus; assay: Antibacterial activity against Bacillus cereus MTCC 430 by agar streak dilution method; format: functional
[16] = test system: Proteus vulgaris; assay: Antibacterial activity against Proteus vulgaris MTCC 1771 at 100 ug/disc by paper disc diffusion technique; format: functional; details: read-out: IZ
[17] = test system: Pseudomonas aeruginosa; assay: Antibacterial activity against Pseudomonas aeruginosa MTCC 741 at 100 ug/disc by paper disc diffusion technique; format: functional; details: read-out: IZ
[18] = test system: Staphylococcus aureus; assay: Antibacterial activity against Staphylococcus aureus MTCC 96 at 100 ug/disc by paper disc diffusion technique; format: functional; details: read-out: IZ
[19] = test system: Aspergillus fumigatus; assay: Antifungal activity against Aspergillus fumigatus MTCC 343 by agar streak dilution method; format: functional
[20] = test system: Aspergillus clavatus; assay: Antifungal activity against Aspergillus clavatus MTCC 1323 by agar streak dilution method; format: functional
[21] = test system: Staphylococcus aureus; assay: Antibacterial activity against Staphylococcus aureus MTCC 96 by agar streak dilution method; format: functional
[22] = test system: Shigella flexneri; assay: Antibacterial activity against Shigella flexneri MTCC 1457 at 100 ug/disc by paper disc diffusion technique; format: functional; details: read-out: IZ
[23] = test system: Aspergillus clavatus; assay: Antifungal activity against Aspergillus clavatus MTCC 1323 at 100 ug/disc by paper disc diffusion technique; format: functional; details: read-out: IZ
[24] = test system: Mycobacterium tuberculosis; assay: Antituberculosis activity against Mycobacterium tuberculosis H37Rv by BACTEC MGIT method; format: functional
[25] = test system: Candida albicans; assay: Antifungal activity against Candida albicans MTCC 183 by agar streak dilution method; format: functional
[26] = test system: Shigella flexneri; assay: Antibacterial activity against Shigella flexneri MTCC 1457 by agar streak dilution method; format: functional
[27] = test system: Mycobacterium tuberculosis; assay: Antituberculosis activity against Mycobacterium tuberculosis H37Rv by Lowenstein-Jensen method; format: functional
[28] = test system: Mycobacterium tuberculosis; assay: Antituberculosis activity against Mycobacterium tuberculosis H37Rv at 6.25 ug/ml by Lowenstein-Jensen method; format: functional

For `O=C(CSc1nnc(Cn2cnc3ccccc32)o1)Nc1nc2ccc(Cl)cc2s1`, the zone of inhibition at 100 µg/disc [1] was 16 mm, the MIC [2] was 50 µg/mL (≈ 109 µM) and the MIC [3] was 25 µg/mL (≈ 54.7 µM). The MIC [4] was 100 µg/mL (≈ 219 µM), the logP [5] was 4.25 and the zone of inhibition at 100 µg/disc [6] was 14 mm. It also gave a zone of inhibition at 100 µg/disc [7] of 22 mm, a zone of inhibition at 100 µg/disc [8] of 13 mm and an MIC [9] of 50 µg/mL (≈ 109 µM). For the same compound, the MIC [10] was 50 µg/mL (≈ 109 µM), the zone of inhibition at 100 µg/disc [11] was 20 mm and the zone of inhibition at 100 µg/disc [12] was 20 mm. The MIC [13] was 50 µg/mL (≈ 109 µM), the zone of inhibition at 100 µg/disc [14] was 27 mm and the MIC [15] was 6.25 µg/mL (≈ 13.7 µM). It also gave a zone of inhibition at 100 µg/disc [16] of 20 mm, a zone of inhibition at 100 µg/disc [17] of 23 mm and a zone of inhibition at 100 µg/disc [18] of 22 mm. It also gave an MIC [19] of 100 µg/mL (≈ 219 µM), an MIC [20] of 100 µg/mL (≈ 219 µM) and an MIC [21] of 12.5 µg/mL (≈ 27.4 µM). The zone of inhibition at 100 µg/disc [22] was 25 mm, the zone of inhibition at 100 µg/disc [23] was 15 mm and the MIC [24] was over 6.25 µg/mL. The MIC [25] was 100 µg/mL (≈ 219 µM), the MIC [26] was 6.25 µg/mL (≈ 13.7 µM) and the MIC [27] was 62.5 µg/mL (≈ 137 µM). It also gave an inhibition at 6.25 µg/mL [28] of 97%.

With `COc1ccc2nc(NC(=O)CSc3nnc(Cn4cnc5ccccc54)o3)sc2c1` the zone of inhibition at 100 µg/disc [1] was 17 mm, the MIC [2] was 50 µg/mL (≈ 110 µM) and the MIC [3] was 100 µg/mL (≈ 221 µM). For the same compound, the MIC [4] was 50 µg/mL (≈ 110 µM), the logP [5] was 3.56 and the zone of inhibition at 100 µg/disc [6] was 25 mm. The zone of inhibition at 100 µg/disc [7] was 20 mm, the zone of inhibition at 100 µg/disc [8] was under 10 mm and the MIC [9] was 50 µg/mL (≈ 110 µM). For the same compound, the MIC [10] was 12.5 µg/mL (≈ 27.6 µM), the zone of inhibition at 100 µg/disc [11] was 18 mm and the zone of inhibition at 100 µg/disc [12] was 21 mm. It also gave an MIC [13] of 50 µg/mL (≈ 110 µM), a zone of inhibition at 100 µg/disc [14] of 20 mm and an MIC [15] of 50 µg/mL (≈ 110 µM). The zone of inhibition at 100 µg/disc [16] was 26 mm, the zone of inhibition at 100 µg/disc [17] was 12 mm and the zone of inhibition at 100 µg/disc [18] was 19 mm. The MIC [19] was 100 µg/mL (≈ 221 µM), the MIC [20] was 50 µg/mL (≈ 110 µM) and the MIC [21] was 25 µg/mL (≈ 55.2 µM). It also gave a zone of inhibition at 100 µg/disc [22] of 24 mm, a zone of inhibition at 100 µg/disc [23] of 22 mm and an MIC [24] of over 6.25 µg/mL. For the same compound, the MIC [25] was 25 µg/mL (≈ 55.2 µM), the MIC [26] was 6.25 µg/mL (≈ 13.8 µM) and the MIC [27] was 12.5 µg/mL (≈ 27.6 µM). It also gave an inhibition at 6.25 µg/mL [28] of 99%.

With `O=C(CSc1nnc(Cn2cnc3ccccc32)o1)Nc1ccc(Br)cc1` the zone of inhibition at 100 µg/disc [1] was 16 mm, the MIC [2] was 50 µg/mL (≈ 113 µM) and the MIC [3] was 12.5 µg/mL (≈ 28.1 µM). It also gave an MIC [4] of 100 µg/mL (≈ 225 µM), a zone of inhibition at 100 µg/disc [6] of 16 mm and a zone of inhibition at 100 µg/disc [7] of 22 mm. It also gave a zone of inhibition at 100 µg/disc [8] of 24 mm, an MIC [9] of 50 µg/mL (≈ 113 µM) and an MIC [10] of 100 µg/mL (≈ 225 µM). The zone of inhibition at 100 µg/disc [11] was 19 mm, the zone of inhibition at 100 µg/disc [12] was 22 mm and the MIC [13] was 50 µg/mL (≈ 113 µM). It also gave a zone of inhibition at 100 µg/disc [14] of 26 mm, an MIC [15] of 12.5 µg/mL (≈ 28.1 µM) and a zone of inhibition at 100 µg/disc [16] of 17 mm. The zone of inhibition at 100 µg/disc [17] was 26 mm, the zone of inhibition at 100 µg/disc [18] was 23 mm and the MIC [19] was 25 µg/mL (≈ 56.3 µM). For the same compound, the MIC [20] was 50 µg/mL (≈ 113 µM), the MIC [21] was 6.25 µg/mL (≈ 14.1 µM) and the zone of inhibition at 100 µg/disc [22] was 22 mm. The zone of inhibition at 100 µg/disc [23] was 23 mm, the MIC [24] was over 6.25 µg/mL and the MIC [25] was 100 µg/mL (≈ 225 µM). The MIC [26] was 25 µg/mL (≈ 56.3 µM), the MIC [27] was 12.5 µg/mL (≈ 28.1 µM) and the inhibition at 6.25 µg/mL [28] was 99%.

Compound `O=C(CSc1nnc(Cn2cnc3ccccc32)o1)Nc1nc2ccc([N+](=O)[O-])cc2s1` has a zone of inhibition at 100 µg/disc [1] of 23 mm, an MIC [2] of 50 µg/mL (≈ 107 µM) and an MIC [3] of 100 µg/mL (≈ 214 µM). It also gave an MIC [4] of 12.5 µg/mL (≈ 26.7 µM), a zone of inhibition at 100 µg/disc [6] of 15 mm and a zone of inhibition at 100 µg/disc [7] of 19 mm. For the same compound, the zone of inhibition at 100 µg/disc [8] was 22 mm, the MIC [9] was 100 µg/mL (≈ 214 µM) and the MIC [10] was 100 µg/mL (≈ 214 µM). It also gave a zone of inhibition at 100 µg/disc [11] of 18 mm, a zone of inhibition at 100 µg/disc [12] of 16 mm and an MIC [13] of 50 µg/mL (≈ 107 µM). It also gave a zone of inhibition at 100 µg/disc [14] of 25 mm, an MIC [15] of 12.5 µg/mL (≈ 26.7 µM) and a zone of inhibition at 100 µg/disc [16] of 15 mm. It also gave a zone of inhibition at 100 µg/disc [17] of 16 mm, a zone of inhibition at 100 µg/disc [18] of 21 mm and an MIC [19] of 50 µg/mL (≈ 107 µM). The MIC [20] was 25 µg/mL (≈ 53.5 µM), the MIC [21] was 12.5 µg/mL (≈ 26.7 µM) and the zone of inhibition at 100 µg/disc [22] was 20 mm. For the same compound, the zone of inhibition at 100 µg/disc [23] was 27 mm, the MIC [24] was over 6.25 µg/mL and the MIC [25] was 100 µg/mL (≈ 214 µM). The MIC [26] was 50 µg/mL (≈ 107 µM), the MIC [27] was 50 µg/mL (≈ 107 µM) and the inhibition at 6.25 µg/mL [28] was 98%.

Reference: ChEMBL document CHEMBL2034905, “Synthesis of benzimidazolyl-1,3,4-oxadiazol-2ylthio-N-phenyl (benzothiazolyl) acetamides as antibacterial, antifungal and antituberculosis agents” (Eur J Med Chem, 2012)
